Test results published in patent US20250073206A1, “SOLID FORMS OF […] […] USES THEREOF” (Sensorium Therapeutics, Inc., priority 2021, published 2025).
≈ marks a conversion by molar mass, not a printed value.

Columns and labels:
[1] = Approximate solubility by visual observation at 25° C.; type: physicochemical; conditions: thermodynamic from solid
Procedure: About 5 mg of batch 1 was weighed into a 2 mL glass vial and aliquots of 20 μL of each solvent were added to get a clear solution. Max. volume of each solvent added was 1 mL.

[2] = biological target: sodium-dependent serotonin transporter (SERT) (Homo sapiens, UniProt P31645); conditions: naturally occurring, from Sceletium tortuosum; cited from earlier work
sodium-dependent serotonin transporter (SERT), sequence (P31645 whole entry, species assumed): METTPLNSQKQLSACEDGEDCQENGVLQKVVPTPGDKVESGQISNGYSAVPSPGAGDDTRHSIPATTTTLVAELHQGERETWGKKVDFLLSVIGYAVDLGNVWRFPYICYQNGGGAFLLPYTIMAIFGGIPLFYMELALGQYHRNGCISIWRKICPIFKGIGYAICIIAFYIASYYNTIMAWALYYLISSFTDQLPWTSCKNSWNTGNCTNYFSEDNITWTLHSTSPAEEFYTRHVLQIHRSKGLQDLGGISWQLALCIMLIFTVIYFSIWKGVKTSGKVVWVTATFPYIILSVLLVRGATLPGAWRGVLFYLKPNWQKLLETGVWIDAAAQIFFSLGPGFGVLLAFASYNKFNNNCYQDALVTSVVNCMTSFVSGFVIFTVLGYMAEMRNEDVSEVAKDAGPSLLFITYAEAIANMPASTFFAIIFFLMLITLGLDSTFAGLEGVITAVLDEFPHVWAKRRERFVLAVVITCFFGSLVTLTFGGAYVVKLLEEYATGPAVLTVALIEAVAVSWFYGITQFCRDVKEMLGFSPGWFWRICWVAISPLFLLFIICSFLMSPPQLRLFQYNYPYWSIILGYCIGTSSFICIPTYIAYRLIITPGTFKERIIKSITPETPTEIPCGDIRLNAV

COc1ccc([C@@]23CCC(=O)C[C@@H]2N(C)CC3)cc1OC [(−) mesembrine, 3a-(3,4-dimethoxyphenyl)-octahydro-1-methyl-6H-indol-6-one] showed a solubility ([1]; organic solvent or mixture, Acetone) of 125 to 250 mg/mL (≈ 432 to 864 mM), a solubility ([1]; organic solvent or mixture, Acetonitrile) of 125 to 250 mg/mL (≈ 432 to 864 mM) and a solubility ([1]; organic solvent or mixture, Dichloromethane) of 125 to 250 mg/mL (≈ 432 to 864 mM). The solubility ([1]; organic solvent or mixture, Ethanol) was 125 to 250 mg/mL (≈ 432 to 864 mM), the solubility ([1]; organic solvent or mixture, Ethyl acetate) was 125 to 250 mg/mL (≈ 432 to 864 mM) and the solubility ([1]; organic solvent or mixture, Methanol) was 125 to 250 mg/mL (≈ 432 to 864 mM). It also gave a solubility ([1]; organic solvent or mixture, Tetrahydrofuran) of 125 to 250 mg/mL (≈ 432 to 864 mM), a solubility ([1]; organic solvent or mixture, Toluene) of 7 to 10 mg/mL (≈ 24.2 to 34.6 mM) and a solubility ([1]; organic solvent or mixture, t-Butyl methyl ether) of 125 to 250 mg/mL (≈ 432 to 864 mM). The solubility ([1]; Water) was 125 to 250 mg/mL (≈ 432 to 864 mM) and the “serotonin (5-HT) uptake inhibitory activity” value [2] was “serotonin (5-HT) uptake inhibitory activity”.
